Assay results as given in US9757403B2, “Glycan therapeutics and related methods thereof” (KALEIDO BIOSCIENCES, INC., priority 2015, dated 2017).

Tested on: Clostridium difficile (strain VPI 10463 (ATCC-43255))
Test: Mouse model of Clostridium difficile infection, disease-associated phenotypes and spore carriage
Type: in vivo, Mice (female C57BL/6)
Protocol: This experiment was conducted to analyze the effects of glycan therapeutics in a mouse model of Clostridium difficile infection (Chen et al, 2008, A Mouse Model of Clostridium difficile-Associated Disease. Gastroenterology 135(6), 1984-1992). In this model, normal mice were exposed to an antibiotic regimen that renders them susceptible to C. difficile infection and disease symptoms, similar with respect to their development and manifestation of human clinical disease. In humans, the disease is most often the result of exposure to broad spectrum antibiotics which is thought to result in intestinal dysbiosis and subsequent increased colonic colonization with C. difficile. […]
Disease-associated phenotypes were recorded for a duration of ten days starting on the day of Clostridium difficile challenge (on day 0) through day 10. The phenotypes, including lethargy, hunched posture and ruffled coat, wet tail/abdomen and hypothermia were scored from 0 to 4: Normal=0; Lethargic=1; Lethargic+Hunched=2; Lethargic+Hunched+Wet tail/abdomen (diarrhea)=3; and Lethargic+Hunched+Wet tail/abdomen+Hypothermic=4. Death (day 0 to day 10 or 11) and weight (day 1 to day 7 and day 10) of the animals was also monitored and recorded.
In addition, carriage of Clostridium difficile spores, which is indicative of Clostridium difficile gut colonization in both mice and humans, was assessed daily from day 0 to day 6. […]

CN[C@H](CC(C)C)C(=O)N[C@H]1C(=O)N[C@@H](CC(N)=O)C(=O)N[C@H]2C(=O)N[C@H]3C(=O)N[C@H](C(=O)N[C@H](C(=O)O)c4cc(O)cc(O)c4-c4cc3ccc4O)[C@H](O)c3ccc(c(Cl)c3)Oc3cc2cc(c3O[C@@H]2O[C@H](CO)[C@@H](O)[C@H](O)[C@H]2O[C@H]2C[C@](C)(N)[C@H](O)[C@H](C)O2)Oc2ccc(cc2Cl)[C@H]1O [Vancomycin, vancomycin]
clinical signs on day 10 (PO gavage QD days 0 to 4): exhibited clinical signs | clinical score of survivors (score 0 to 4, after end of treatment, days 7 to 10): above 0
